In patent publication US7947694B2, “Substituted pyrazolo[3,4-D]pyrimidines as cell cycle kinase inhibitors” (Janssen Pharmaceutica NV, priority 2005, dated 2011):
Counter-ions that a name gives are not always drawn.

Experiments:
[1] = target: CDK4/cyclinD1 (Homo sapiens, UniProt P11802); test: In vitro filtration assay for CDK4 inhibitory activity; assay type: biochemical; conditions: GST-pRb phosphorylation, [33P]-ATP, 1 μM unlabeled ATP, 25° C., 45 minutes; read-out: cdk4 filter (pIC50) (converted)
CDK4/cyclinD1, sequence (P11802 whole entry, species assumed): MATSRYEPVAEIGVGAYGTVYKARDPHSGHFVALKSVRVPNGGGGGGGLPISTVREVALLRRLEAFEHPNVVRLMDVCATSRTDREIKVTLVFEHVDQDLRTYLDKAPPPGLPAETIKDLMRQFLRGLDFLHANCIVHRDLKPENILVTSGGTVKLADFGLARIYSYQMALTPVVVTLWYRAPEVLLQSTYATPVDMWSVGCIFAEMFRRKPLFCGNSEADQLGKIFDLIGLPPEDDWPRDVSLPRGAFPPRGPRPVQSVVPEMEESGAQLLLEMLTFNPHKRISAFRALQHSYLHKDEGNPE
CDK4/cyclinD1, sequence (P24385 whole entry partner, species assumed): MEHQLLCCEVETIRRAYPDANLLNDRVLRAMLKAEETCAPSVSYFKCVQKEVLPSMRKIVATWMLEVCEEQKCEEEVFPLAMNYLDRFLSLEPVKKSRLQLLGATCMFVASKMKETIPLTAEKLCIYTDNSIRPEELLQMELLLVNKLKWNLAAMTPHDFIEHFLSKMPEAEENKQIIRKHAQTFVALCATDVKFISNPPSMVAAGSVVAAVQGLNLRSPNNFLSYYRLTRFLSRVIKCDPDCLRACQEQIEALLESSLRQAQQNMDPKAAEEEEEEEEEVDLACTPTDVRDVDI
Method: C.1. In Vitro Filtration Assay for CDK4 Inhibitory Activity
(§1) Compounds of the present invention were tested in an in vitro filtration assay assessing CDK4 activity by means of its pRb-phosphorylation activity using [^33P]-ATP as phosphor donor. The radioactive phosphorylated pRb is then captured on filtermats and the incorporated [^33P] quantitated using a phosphorage storage screen.
The CDK4 kinase reaction is performed at 25° C. for 45 minutes in a 96-well microtiterplate. The 25 μl reaction volume contains 50 mM Hepes pH 7.5, 10 mM NaF, 10 mM MgCl2, 1 mM Na3VO4, 1 μM unlabeled ATP, 1 mM DTT, 0.5 μCi AT^33P, 0.76 μg/well GST-pRb, 50 ng CDK4/cyclinD1/well and 0.2% compound in 100% DMSO.
(§2) The reaction is stopped by adding 5 μl of a 3% phosphoric acid solution. 10 μl of the reaction mixture is then spotted onto a Filtermat P30 filter (Wallac) and washed 3 times for 5 min. in 75 mM phosphoric acid and 1 time for 5 min. in methanol prior to drying and quantification on the Typhoon (Amersham) using a phosphorage storage screen.
(§3) C.4. Calculation of pIC50 Values
(§4) For each experiment, controls (containing enzyme (complex) and DMSO without compound), a blank incubation (containing DMSO but no enzyme (complex) or compound) and samples (containing enzyme (complex) and compound dissolved in DMSO) were run in parallel. All compounds tested were dissolved and eventually further diluted in DMSO. […] In each test, the blank value was subtracted from both the control and the sample values. The control sample represented maximal enzyme activity. For each sample, the amount of cpm was expressed as a percentage of the mean cpm value of the controls. When appropriate, IC50-values (concentration of the drug, needed to reduce the enzyme activity to 50% of the control) were computed using linear interpolation between the experimental points just above and below the 50% level. Herein the effects of test compounds are expressed as pIC50 (the negative log value of the IC50-value).

[2] = target: T1, Aurora A (Homo sapiens, UniProt O14965); test: In vitro filtration assay for AURORA A inhibitory activity; assay type: biochemical; conditions: 200 μM Kemptide substrate, [33P]-ATP, 1 μM unlabeled ATP, 25° C., 40 minutes; read-out: Aurora A see C.2 (pIC50) (converted)
T1 sequence (O14965 1-403): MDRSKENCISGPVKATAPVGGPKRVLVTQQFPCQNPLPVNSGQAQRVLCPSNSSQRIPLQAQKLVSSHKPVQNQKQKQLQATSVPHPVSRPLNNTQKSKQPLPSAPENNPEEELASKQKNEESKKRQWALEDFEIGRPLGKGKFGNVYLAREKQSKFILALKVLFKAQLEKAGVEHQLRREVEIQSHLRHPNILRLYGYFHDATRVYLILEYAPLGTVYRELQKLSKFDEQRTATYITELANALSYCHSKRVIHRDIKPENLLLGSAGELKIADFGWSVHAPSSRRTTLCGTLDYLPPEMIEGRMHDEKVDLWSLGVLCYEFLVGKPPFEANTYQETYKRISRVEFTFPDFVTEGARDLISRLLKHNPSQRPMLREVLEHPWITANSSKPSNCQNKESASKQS
Method: C.2. In Vitro Filtration Assay for AURORA A Inhibitory Activity
as §1, with “AURORA A” for “CDK4”, “substrate-phosphorylation” for “pRb-phosphorylation”, “substrate” for “pRb”
The Aurora-A kinase reaction is performed at 25° C. for 40 minutes in a 96-well microtiterplate. The 25 μl reaction volume contains 12 mM MOPS pH 7, 0.4 mM EDTA, 0.002% Brij35, 1% glycerol, 0.02% beta-mercapto-ethanol, 0.2 mg/ml BSA, 1 μM unlabeled ATP, 0.2 μCi [^33P]-ATP, 200 μM Kemptide, 3 ng Aurora A/well and 0.2% compound in 100% DMSO.
as §2, §3, §4

[3] = target: Aurora-B (Homo sapiens, UniProt Q96GD4); test: In vitro filtration assay for AURORA B inhibitory activity; assay type: biochemical; conditions: peptide (C(LRRWSLG)×4) substrate, [33P]-ATP, 1 μM unlabeled ATP, 25° C., 40 minutes; read-out: Aurora B see C.3 (pIC50) (converted)
Aurora-B, sequence (Q96GD4 whole entry): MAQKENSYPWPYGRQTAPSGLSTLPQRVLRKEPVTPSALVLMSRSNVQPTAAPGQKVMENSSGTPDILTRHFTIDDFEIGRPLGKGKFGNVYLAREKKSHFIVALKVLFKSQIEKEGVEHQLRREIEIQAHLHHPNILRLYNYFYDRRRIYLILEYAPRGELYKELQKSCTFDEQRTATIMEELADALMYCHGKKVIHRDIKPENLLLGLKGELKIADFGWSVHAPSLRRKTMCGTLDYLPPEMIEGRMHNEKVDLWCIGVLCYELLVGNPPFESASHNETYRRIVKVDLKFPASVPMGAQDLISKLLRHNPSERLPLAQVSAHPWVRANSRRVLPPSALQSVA
Method: C.3 In Vitro Filtration Assay for AURORA B Inhibitory Activity
as §1, with “AURORA B” for “CDK4”, “substrate-phosphorylation” for “pRb-phosphorylation”, “substrate” for “pRb”
The Aurora-B kinase reaction is performed at 25° C. for 40 minutes in a 96-well microtiterplate. The 25 μl reaction volume contains 60 mM Hepes pH 7.5, 3 mM MgCl2, 3 mM MnCl2, 3 μM Na3VO4, 50 μg/ml PEG20000, 1 μM unlabeled ATP, 1 mM DTT, 0.2 μCi AT^33P, 0.25 μg/well peptide (C(LRRWSLG)×4), 100 ng Aurora-B/well and 0.2% compound in 100% DMSO.
as §2, §3, §4

| IC50 [1] | IC50 [2] | IC50 [3] | melting point | Compound |
| --- | --- | --- | --- | --- |
| 20 nM | > 10000 nM | > 10000 nM |  | CCN(CC)CCCOc1ccc(Nc2ncc3cnn(C4CCCCC4)c3n2)cc1 [Co. No. 7] |
| 63.1 nM | 3160 nM | 6310 nM |  | c1ccc2c(c1)CC(NCc1ccc(Nc3ncc4cnn(C5CCOCC5)c4n3)cc1)C2 [Co. No. 18] |
| 31.6 nM | 200 nM | 200 nM |  | COCCCNCc1ccc(Nc2ncc3cnn([C@H]4C[C@@H]5CC[C@H]4C5)c3n2)cc1 [Co. No. 10] |
| 7.94 nM | 1580 nM | > 10000 nM |  | CCN(CC)CC(O)COc1ccc(Nc2ncc3cnn(C4CCCCC4)c3n2)cc1 (centres unmarked) [Co. No. 1] |
| 2000 nM | 100 nM | 794 nM |  | COCCCN(Cc1ccc(Nc2ncc3cnn(C4CCOCC4)c3n2)cc1)C(=O)OC(C)(C)C [Co. No. 13] |
| 15.8 nM | 126 nM | 7940 nM | 222.5 to 224 °C | c1ncn(-c2ccc(Nc3ncc4cnn(C5CCCCC5)c4n3)cc2)n1 [Co. No. 3] |
| 631 nM | 3980 nM | 7940 nM |  | COCCCNCc1ccc(Nc2ncc3cnn(C4CCOCC4)c3n2)cc1 [Co. No. 12] |
| 1260 nM | 631 nM | > 10000 nM |  | COCCCNS(=O)(=O)c1ccc(Nc2ncc3cnn(C4CCCCC4)c3n2)cc1 [Co. No. 5] |
| > 10000 nM | 1000 nM | > 10000 nM |  | CC(C)(C)OC(=O)N(Cc1ccc(Nc2ncc3cnn(C4CCCCC4)c3n2)cc1)C1Cc2ccccc2C1 [Co. No. 15] |
|  |  |  | 212 to 214 °C | COCCCNCc1ccc(Nc2ncc3cnn(C4CCCCC4)c3n2)cc1 (as salt: HCl) [Co. No. 2] |
| 1000 nM | 631 nM | > 10000 nM |  | COCCCN(Cc1ccc(Nc2ncc3cnn(C4CCCCC4)c3n2)cc1)C(=O)OC(C)(C)C [Co. No. 8] |
| > 10000 nM | 6310 nM | > 10000 nM |  | CC(C)(C)OC(=O)N(Cc1ccc(Nc2ncc3cnn([C@H]4C[C@@H]5CC[C@H]4C5)c3n2)cc1)C1Cc2ccccc2C1 [Co. No. 20] |
| 100 nM | 631 nM | 7940 nM |  | CN(C)CCOC(=O)c1ccc(Nc2ncc3cnn(C4CCCCC4)c3n2)cc1 [Co. No. 21] |
| > 10000 nM | 158 nM | 631 nM |  | CC(C)(C)OC(=O)N(c1ccc(CN(C(=O)OC(C)(C)C)C2Cc3ccccc3C2)cc1)c1ncc2cnn([C@H]3C[C@@H]4CC[C@H]3C4)c2n1 [Co. No. 19] |
| 12.6 nM | 251 nM | 7940 nM |  | c1ccc2c(c1)CC(NCc1ccc(Nc3ncc4cnn(C5CCCCC5)c4n3)cc1)C2 [Co. No. 16] |
| 79.4 nM | 251 nM | 158 nM |  | COCCCNCc1ccc(Nc2ncc3cnn([C@H]4C[C@@H]5CC[C@H]4C5)c3n2)cc1 [Co. No. 9] |
| 158 nM | 316 nM | 7940 nM |  | c1cc2cc(Nc3ncc4cnn(C5CCCCC5)c4n3)ccc2[nH]1 [Co. No. 14] |
| 2000 nM | 794 nM | 5010 nM |  | COCCCN(Cc1ccc(Nc2ncc3cnn([C@H]4C[C@@H]5CC[C@H]4C5)c3n2)cc1)C(=O)OC(C)(C)C [Co. No. 11] |
| 25.1 nM | 1580 nM | > 10000 nM |  | CCN(CC)CCNC(=O)c1ccc(Nc2ncc3cnn(C4CCCCC4)c3n2)cc1 [Co. No. 6] |
| 6.31 nM | 158 nM | > 10000 nM |  | COCCCNCc1ccc(Nc2ncc3cnn(C4CCCCC4)c3n2)cc1 [Co. No. 2] |
| 25.1 nM | 316 nM | 316 nM |  | c1ccc2c(c1)CC(NCc1ccc(Nc3ncc4cnn([C@H]5C[C@@H]6CC[C@H]5C6)c4n3)cc1)C2 [Co. No. 4] |
| 63.1 nM | 316 nM | 501 nM |  | O=C(NC1Cc2ccccc2C1)c1ccc(Nc2ncc3cnn(C4CCCCC4)c3n2)cc1 [Co. No. 17] |
